According to patent US20260274829A1, “NEW E3 UBIQUITIN LIGASE LIGAND, PROTEIN DEGRADATION AGENT AND USE THEREOF” (GLUETACS THERAPEUTICS (SHANGHAI) CO., LTD., priority 2023, published 2026):
Where two headings read alike, the source gives them in different places.

Experiments:
WEE1 = biological target: T1, WEE1 (Homo sapiens, UniProt P30291+Q96SW2); experiment: Western blot degradation of WEE1 in hPBMC; assay type: cell-based
T1 construct: endogenous in cells; host or cells: hPBMC
Procedure: (§1) Conventional Western blot assay was performed to evaluate the effects of the compounds of the present disclosure on the expression of target proteins in cells.
(§2) • (1) Cell Seeding and Protein Harvesting: The selected cells were processed according to the cell seeding procedure and protein harvesting procedure in Table III-2.
(§3) • (2) To the collected supernatant, 5×SDS sample loading buffer was added, followed by denaturation at 95° C. for 5 minutes. The denatured samples were then separated by SDS-PAGE electrophoresis on a polyacrylamide gel. Proteins were transferred to a nitrocellulose membrane ([…] NC membrane), blocked with blocking buffer at room temperature for 1 hour, and subjected to antibody incubation and development procedures according to the antibody manufacturer's instructions (Cell Signaling Technology).
(§4) Half-Maximal Degradation Concentration value (the drug concentration required for degrading proteins by 50%, abbreviated as DC50) reads method: comparing the grayscale values of Western blot bands from drug-treated samples with those from blank DMSO-treated controls, and identifying the drug concentration range at which the grayscale value is half that of the DMSO-treated control bands.
(§5) DC50 values can be calculated using ImageJ software to measure grayscale values of Western blot bands from drug-treated samples. The concentration-response curve is fitted to estimate the drug concentration corresponding to half the grayscale value.
(§6) Target protein remaining (0%) refers to the percentage of target protein remaining in hPBMC cells after treatment with protein degrader compounds.
(§7) Calculation method for target protein remaining (0%): Use ImageJ software to measure grayscale values of Western blot bands from drug (protein degrader)-treated samples. The grayscale value of drug-treated bands is divided by that of internal control protein bands, and the resulting quotient is normalized to obtain the relative percentage of remaining target protein after protein degrader treatment.

IKZF1 = biological target: T2, IKZF1 (Homo sapiens, UniProt Q13422+Q96SW2); experiment: Western blot degradation of IKZF1 in hPBMC; assay type: cell-based
T2 construct: endogenous in cells; host or cells: hPBMC
T2 sequence (Q13422 whole entry): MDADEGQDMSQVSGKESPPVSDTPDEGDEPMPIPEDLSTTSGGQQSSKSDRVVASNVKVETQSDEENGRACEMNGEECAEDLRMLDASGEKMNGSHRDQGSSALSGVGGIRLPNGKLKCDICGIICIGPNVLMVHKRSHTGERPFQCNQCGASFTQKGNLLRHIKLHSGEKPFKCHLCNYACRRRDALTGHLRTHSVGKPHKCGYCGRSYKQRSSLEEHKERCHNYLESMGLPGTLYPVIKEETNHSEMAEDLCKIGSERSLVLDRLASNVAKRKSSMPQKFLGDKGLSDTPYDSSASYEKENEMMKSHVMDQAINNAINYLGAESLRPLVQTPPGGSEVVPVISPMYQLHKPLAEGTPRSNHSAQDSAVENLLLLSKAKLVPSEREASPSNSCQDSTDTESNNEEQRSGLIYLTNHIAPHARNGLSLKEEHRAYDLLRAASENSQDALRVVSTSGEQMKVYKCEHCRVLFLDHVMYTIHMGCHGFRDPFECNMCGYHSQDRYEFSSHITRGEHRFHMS
T2 sequence (Q96SW2 whole entry): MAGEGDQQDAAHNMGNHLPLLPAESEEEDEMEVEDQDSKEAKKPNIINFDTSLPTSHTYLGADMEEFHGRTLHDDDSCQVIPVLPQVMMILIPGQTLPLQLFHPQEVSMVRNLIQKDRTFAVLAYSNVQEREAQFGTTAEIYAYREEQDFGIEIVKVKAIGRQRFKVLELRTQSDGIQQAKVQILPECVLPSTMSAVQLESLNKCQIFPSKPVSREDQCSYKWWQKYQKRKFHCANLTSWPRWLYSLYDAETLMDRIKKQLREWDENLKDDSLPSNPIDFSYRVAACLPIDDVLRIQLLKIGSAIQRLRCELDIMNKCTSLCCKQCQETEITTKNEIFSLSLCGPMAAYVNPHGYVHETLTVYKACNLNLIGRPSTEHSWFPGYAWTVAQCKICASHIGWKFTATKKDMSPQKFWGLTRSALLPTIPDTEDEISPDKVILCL
T2 sequence (Q16531 whole entry partner): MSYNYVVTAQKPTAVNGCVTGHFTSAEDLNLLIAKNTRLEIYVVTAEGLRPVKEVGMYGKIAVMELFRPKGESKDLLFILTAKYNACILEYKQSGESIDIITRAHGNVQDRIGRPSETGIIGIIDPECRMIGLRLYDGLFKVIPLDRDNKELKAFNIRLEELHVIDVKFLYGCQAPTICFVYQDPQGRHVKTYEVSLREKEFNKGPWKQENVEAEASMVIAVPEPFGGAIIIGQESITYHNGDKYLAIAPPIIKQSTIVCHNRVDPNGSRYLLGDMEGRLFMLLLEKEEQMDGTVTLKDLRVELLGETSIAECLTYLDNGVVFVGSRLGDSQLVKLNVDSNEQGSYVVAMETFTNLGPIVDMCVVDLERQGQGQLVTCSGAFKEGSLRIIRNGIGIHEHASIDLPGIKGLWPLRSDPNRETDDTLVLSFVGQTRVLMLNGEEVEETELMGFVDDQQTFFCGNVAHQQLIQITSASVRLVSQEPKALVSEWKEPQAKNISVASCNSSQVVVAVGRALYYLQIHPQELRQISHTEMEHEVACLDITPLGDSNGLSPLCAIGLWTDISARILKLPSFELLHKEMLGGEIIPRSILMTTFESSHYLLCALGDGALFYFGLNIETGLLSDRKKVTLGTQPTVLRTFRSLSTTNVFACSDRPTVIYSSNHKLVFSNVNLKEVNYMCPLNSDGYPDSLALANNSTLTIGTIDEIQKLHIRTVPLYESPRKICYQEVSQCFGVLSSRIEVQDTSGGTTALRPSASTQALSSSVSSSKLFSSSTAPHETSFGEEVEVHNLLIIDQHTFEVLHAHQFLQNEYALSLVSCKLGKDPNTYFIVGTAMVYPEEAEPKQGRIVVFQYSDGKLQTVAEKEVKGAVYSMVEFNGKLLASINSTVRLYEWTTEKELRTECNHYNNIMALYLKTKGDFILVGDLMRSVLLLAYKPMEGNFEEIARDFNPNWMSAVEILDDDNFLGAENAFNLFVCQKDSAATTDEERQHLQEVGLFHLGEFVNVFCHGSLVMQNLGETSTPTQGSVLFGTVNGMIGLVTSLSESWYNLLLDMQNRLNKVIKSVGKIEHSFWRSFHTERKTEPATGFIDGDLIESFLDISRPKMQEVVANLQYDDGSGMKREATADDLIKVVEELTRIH
Procedure: as §1, §2, §3, §4, §5, §6, §7

IKZF2 = biological target: T3, IKZF2 (Homo sapiens, UniProt Q96SW2+Q9UKS7); experiment: Western blot degradation of IKZF2 in hPBMC; assay type: cell-based
T3 construct: endogenous in cells; host or cells: hPBMC
T3 sequence (Q9UKS7 whole entry): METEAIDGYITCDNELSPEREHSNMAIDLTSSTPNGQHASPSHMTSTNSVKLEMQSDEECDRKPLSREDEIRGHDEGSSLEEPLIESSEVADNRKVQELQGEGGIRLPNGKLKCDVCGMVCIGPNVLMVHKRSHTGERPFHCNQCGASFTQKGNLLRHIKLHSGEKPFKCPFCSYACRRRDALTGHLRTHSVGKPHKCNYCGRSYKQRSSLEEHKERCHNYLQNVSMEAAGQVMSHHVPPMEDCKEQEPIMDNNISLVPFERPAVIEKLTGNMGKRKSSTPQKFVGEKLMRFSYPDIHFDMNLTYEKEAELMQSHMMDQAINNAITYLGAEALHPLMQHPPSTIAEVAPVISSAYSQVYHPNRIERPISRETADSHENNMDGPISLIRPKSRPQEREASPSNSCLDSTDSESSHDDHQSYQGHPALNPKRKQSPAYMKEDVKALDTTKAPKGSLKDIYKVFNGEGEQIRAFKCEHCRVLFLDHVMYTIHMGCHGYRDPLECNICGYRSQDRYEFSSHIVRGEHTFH
T3 sequence (Q96SW2 whole entry): as the sequence (Q96SW2 whole entry) above
T3 sequence (Q16531 whole entry partner): as the sequence (Q16531 whole entry partner) above
Procedure: as §1, §2, §3, §4, §5, §6, §7

IKZF3 = biological target: T4, IKZF3 (Homo sapiens, UniProt Q96SW2+Q9UKT9); experiment: Western blot degradation of IKZF3 in hPBMC; assay type: cell-based
T4 construct: endogenous in cells; host or cells: hPBMC
T4 sequence (Q9UKT9 whole entry): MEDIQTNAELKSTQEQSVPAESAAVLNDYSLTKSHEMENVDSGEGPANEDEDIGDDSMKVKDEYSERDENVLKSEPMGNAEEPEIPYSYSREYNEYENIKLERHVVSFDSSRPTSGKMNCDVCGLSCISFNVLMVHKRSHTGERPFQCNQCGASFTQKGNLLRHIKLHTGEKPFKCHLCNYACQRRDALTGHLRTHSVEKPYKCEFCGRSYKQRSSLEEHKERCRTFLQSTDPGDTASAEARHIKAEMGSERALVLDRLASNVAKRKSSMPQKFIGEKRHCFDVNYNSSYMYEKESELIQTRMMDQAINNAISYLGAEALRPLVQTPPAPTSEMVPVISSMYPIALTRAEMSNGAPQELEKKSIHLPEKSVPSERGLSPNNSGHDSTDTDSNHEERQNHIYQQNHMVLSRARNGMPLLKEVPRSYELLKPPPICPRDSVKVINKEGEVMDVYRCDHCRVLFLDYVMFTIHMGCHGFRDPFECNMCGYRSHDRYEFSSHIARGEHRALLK
T4 sequence (Q96SW2 whole entry): as the sequence (Q96SW2 whole entry) above
T4 sequence (Q16531 whole entry partner): as the sequence (Q16531 whole entry partner) above
Procedure: as §1, §2, §3, §4, §5, §6, §7

CK1a = biological target: T5, CK1a (Homo sapiens, UniProt P48729+Q96SW2); experiment: Western blot degradation of CK1a in hPBMC; assay type: cell-based
T5 construct: endogenous in cells; host or cells: hPBMC
Procedure: as §1, §2, §3, §4, §5, §6, §7

GSPT1 = biological target: T6, GSPT1 (Homo sapiens, UniProt P15170+Q96SW2); experiment: Western blot degradation of GSPT1 in hPBMC; assay type: cell-based
T6 construct: endogenous in cells; host or cells: hPBMC
T6 sequence (P15170 whole entry): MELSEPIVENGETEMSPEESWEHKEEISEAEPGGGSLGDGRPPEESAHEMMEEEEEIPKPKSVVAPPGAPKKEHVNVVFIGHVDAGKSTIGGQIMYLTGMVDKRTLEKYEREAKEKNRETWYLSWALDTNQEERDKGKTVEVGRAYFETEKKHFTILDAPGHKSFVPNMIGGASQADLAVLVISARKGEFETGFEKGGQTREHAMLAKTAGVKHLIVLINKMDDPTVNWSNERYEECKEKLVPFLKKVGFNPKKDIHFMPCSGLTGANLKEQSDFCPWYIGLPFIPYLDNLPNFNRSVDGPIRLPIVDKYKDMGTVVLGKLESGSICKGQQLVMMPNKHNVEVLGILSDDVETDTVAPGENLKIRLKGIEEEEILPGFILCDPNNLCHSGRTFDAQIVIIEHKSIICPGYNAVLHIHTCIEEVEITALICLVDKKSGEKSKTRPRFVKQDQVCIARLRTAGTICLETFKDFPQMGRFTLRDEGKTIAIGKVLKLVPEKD
T6 sequence (Q96SW2 whole entry): as the sequence (Q96SW2 whole entry) above
T6 sequence (Q16531 whole entry partner): as the sequence (Q16531 whole entry partner) above
Procedure: as §1, §2, §3, §4, §5, §6, §7

[1] = biological target: T7, human Cereblon WT GST-tagged protein (Homo sapiens, UniProt Q96SW2); experiment: CRBN binding, HTRF CEREBLON BINDING kit
T7 construct: purchased CISBIO 64BDCRBNPEH
T7 sequence (Q96SW2 whole entry): as the sequence (Q96SW2 whole entry) above
How it was run: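 Binding inhibition was calculated from the 665/620 nm emission ratios, with blank wells and solvent wells as references. Test compounds competed for GST-tagged human Cereblon WT against a Thalidomide-Re reagent paired with GST Eu antibody. Plates were sealed and held at room temperature for 3 hours before the HTRF read.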

[2] = CRBN binding, HTRF CEREBLON BINDING kit

T1 sequence (P30291 whole entry): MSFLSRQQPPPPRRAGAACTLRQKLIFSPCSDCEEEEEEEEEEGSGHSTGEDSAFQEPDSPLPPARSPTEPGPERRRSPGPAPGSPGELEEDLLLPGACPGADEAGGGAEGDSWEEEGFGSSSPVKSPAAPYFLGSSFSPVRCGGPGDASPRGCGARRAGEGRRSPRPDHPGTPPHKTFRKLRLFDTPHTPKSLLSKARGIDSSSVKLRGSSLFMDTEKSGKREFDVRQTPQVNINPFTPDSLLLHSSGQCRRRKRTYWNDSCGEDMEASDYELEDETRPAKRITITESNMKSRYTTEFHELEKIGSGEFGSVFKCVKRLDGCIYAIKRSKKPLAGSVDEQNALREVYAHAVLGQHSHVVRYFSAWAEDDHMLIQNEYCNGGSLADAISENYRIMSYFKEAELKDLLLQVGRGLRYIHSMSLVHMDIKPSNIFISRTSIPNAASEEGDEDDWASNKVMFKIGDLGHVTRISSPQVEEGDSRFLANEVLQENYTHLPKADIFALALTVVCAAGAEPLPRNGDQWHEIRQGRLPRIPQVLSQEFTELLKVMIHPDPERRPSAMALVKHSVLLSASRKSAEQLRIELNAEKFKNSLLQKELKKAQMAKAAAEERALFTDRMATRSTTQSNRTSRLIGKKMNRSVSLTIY
T1 sequence (Q96SW2 whole entry): as the sequence (Q96SW2 whole entry) above
T1 sequence (Q16531 whole entry partner): as the sequence (Q16531 whole entry partner) above

O=C1CCC(c2cncc(CCl)c2)C(=O)N1 (centres unmarked) [GT-06991, 3-(5-(chloromethyl)pyridin-3-yl)piperidine-2,6-dione]
Degradation of substrate protein WEE1 (substrate protein remaining %) (WEE1): B (B is defined as substrate protein remaining % > 80%)
Degradation of substrate protein IKZF1 (substrate protein remaining %) (IKZF1): B (B is defined as substrate protein remaining % > 80%)
Degradation of substrate protein IKZF2 (substrate protein remaining %) (IKZF2): A (A is defined as 0% ≤ substrate protein remaining % ≤ 80%)
Degradation of substrate protein IKZF3 (substrate protein remaining %) (IKZF3): B (B is defined as substrate protein remaining % > 80%)
Degradation of substrate protein CK1a (substrate protein remaining %) (CK1a): B (B is defined as substrate protein remaining % > 80%)
Degradation of substrate protein GSPT1 (substrate protein remaining %) (GSPT1): B (B is defined as substrate protein remaining % > 80%)

O=C1CCN(c2ccc(CCl)cn2)C(=O)N1 [GT-07009, 1-(5-(chloromethyl)pyridin-2-yl)dihydropyrimidine-2,4(1H,3H)-dione]
Degradation of substrate protein WEE1 (substrate protein remaining %) (WEE1): B (B is defined as substrate protein remaining % > 80%)
Degradation of substrate protein IKZF1 (substrate protein remaining %) (IKZF1): B (B is defined as substrate protein remaining % > 80%)
Degradation of substrate protein IKZF2 (substrate protein remaining %) (IKZF2): B (B is defined as substrate protein remaining % > 80%)
Degradation of substrate protein IKZF3 (substrate protein remaining %) (IKZF3): B (B is defined as substrate protein remaining % > 80%)
Degradation of substrate protein CK1a (substrate protein remaining %) (CK1a): A (A is defined as 0% ≤ substrate protein remaining % ≤ 80%)
Degradation of substrate protein GSPT1 (substrate protein remaining %) (GSPT1): B (B is defined as substrate protein remaining % > 80%)

O=C1CCC(c2ccc(CO)nc2)C(=O)N1 (centres unmarked) [GT-07010, 3-(6-(hydroxymethyl)pyridin-3-yl)piperidine-2,6-dione]
Degradation of substrate protein WEE1 (substrate protein remaining %) (WEE1): B (B is defined as substrate protein remaining % > 80%)
Degradation of substrate protein IKZF1 (substrate protein remaining %) (IKZF1): B (B is defined as substrate protein remaining % > 80%)
Degradation of substrate protein IKZF2 (substrate protein remaining %) (IKZF2): B (B is defined as substrate protein remaining % > 80%)
Degradation of substrate protein IKZF3 (substrate protein remaining %) (IKZF3): A (A is defined as 0% ≤ substrate protein remaining % ≤ 80%)
Degradation of substrate protein CK1a (substrate protein remaining %) (CK1a): A (A is defined as 0% ≤ substrate protein remaining % ≤ 80%)
Degradation of substrate protein GSPT1 (substrate protein remaining %) (GSPT1): A (A is defined as 0% ≤ substrate protein remaining % ≤ 80%)

NCc1ccc(N2CCC(=O)NC2=O)nc1 [GT-07012, 1-(5-(aminomethyl)pyridin-2-yl)dihydropyrimidine-2,4(1H,3H)-dione]
Degradation of substrate protein WEE1 (substrate protein remaining %) (WEE1): A (A is defined as 0% ≤ substrate protein remaining % ≤ 80%)
Degradation of substrate protein IKZF1 (substrate protein remaining %) (IKZF1): B (B is defined as substrate protein remaining % > 80%)
Degradation of substrate protein IKZF2 (substrate protein remaining %) (IKZF2): B (B is defined as substrate protein remaining % > 80%)
Degradation of substrate protein IKZF3 (substrate protein remaining %) (IKZF3): A (A is defined as 0% ≤ substrate protein remaining % ≤ 80%)
Degradation of substrate protein CK1a (substrate protein remaining %) (CK1a): B (B is defined as substrate protein remaining % > 80%)
Degradation of substrate protein GSPT1 (substrate protein remaining %) (GSPT1): A (A is defined as 0% ≤ substrate protein remaining % ≤ 80%)

O=C1CCN(c2cncc(CCl)c2)C(=O)N1 [GT-07047, 1-(5-(chloromethyl)pyridin-3-yl)dihydropyrimidine-2,4(1H,3H)-dione]
Degradation of substrate protein WEE1 (substrate protein remaining %) (WEE1): B (B is defined as substrate protein remaining % > 80%)
Degradation of substrate protein IKZF1 (substrate protein remaining %) (IKZF1): A (A is defined as 0% ≤ substrate protein remaining % ≤ 80%)
Degradation of substrate protein IKZF2 (substrate protein remaining %) (IKZF2): A (A is defined as 0% ≤ substrate protein remaining % ≤ 80%)
Degradation of substrate protein IKZF3 (substrate protein remaining %) (IKZF3): A (A is defined as 0% ≤ substrate protein remaining % ≤ 80%)
Degradation of substrate protein CK1a (substrate protein remaining %) (CK1a): A (A is defined as 0% ≤ substrate protein remaining % ≤ 80%)
Degradation of substrate protein GSPT1 (substrate protein remaining %) (GSPT1): B (B is defined as substrate protein remaining % > 80%)

CCc1cc2c(cc1N1CCC(N3CCN(Cc4cncc(C5CCC(=O)NC5=O)c4)CC3)CC1)C(C)(C)c1[nH]c3cc(C#N)ccc3c1C2=O (centres unmarked) [GT-07706, 8-(4-(4-((5-(2,6-dioxopiperidin-3-yl)pyridin-3-yl)methyl)piperazin-1-yl)piperidin-1-yl)-9-ethyl-6,6-dimethyl-11-oxo-6,11-dihydro-5H-benzo[b]carbazole-3-carbonitrile]
IC50 [1, 2]: < 500 nM

COc1cc(N2CCN(Cc3cncc(N4CCC(=O)NC4=O)c3)CC2)ccc1Nc1ncc(Cl)c(Nc2ccccc2P(C)(C)=O)n1 [GT-07709, 1-(5-((4-(4-((5-chloro-4-((2-(dimethylphosphoryl)phenyl)amino)pyrimidin-2-yl)amino)-3-methoxyphenyl)piperazin-1-yl)methyl)pyridin-3-yl)dihydropyrimidine-2,4(1H,3H)-dione]
IC50 [1, 2]: 500 to 1000 nM

COc1cc(N2CCN(Cc3cc(C4CCC(=O)NC4=O)cnc3F)CC2)ccc1Nc1ncc(Cl)c(Nc2ccccc2P(C)(C)=O)n1 (centres unmarked) [GT-07710, 3-(5-((4-(4-((5-chloro-4-((2-(dimethylphosphoryl)phenyl)amino)pyrimidin-2-yl)amino)-3-methoxyphenyl)piperazin-1-yl)methyl)-6-fluoropyridin-3-yl)piperidine-2,6-dione]
IC50 [1, 2]: < 500 nM

COc1cc(N2CCN(Cc3ccc(C4CCC(=O)NC4=O)cn3)CC2)ccc1Nc1ncc(Cl)c(Nc2ccccc2P(C)(C)=O)n1 (centres unmarked) [GT-07713, 3-(6-((4-(4-((5-chloro-4-((2-(dimethylphosphoryl)phenyl)amino)pyrimidin-2-yl)amino)-3-methoxyphenyl)piperazin-1-yl)methyl)pyridin-3-yl)piperidine-2,6-dione]
IC50 [1, 2]: 500 to 1000 nM

COc1cc(N2CCN(Cc3cncc(C4CCC(=O)NC4=O)c3)CC2)ccc1Nc1ncc(Cl)c(Nc2ccccc2P(C)(C)=O)n1 (centres unmarked) [GT-07714, 3-(5-((4-(4-((5-chloro-4-((2-(dimethylphosphoryl)phenyl)amino)pyrimidin-2-yl)amino)-3-methoxyphenyl)piperazin-1-yl)methyl)pyridin-3-yl)piperidine-2,6-dione]
IC50 [1, 2]: < 500 nM

COc1cc2nn(C3CCN(Cc4cc(N5CCC(=O)NC5=O)cnc4F)CC3)cc2cc1NC(=O)c1cccc(C(F)(F)F)c1 [GT-07781, N-(2-(1-((5-(2,4-dioxotetrahydropyrimidin-1(2H)-yl)-2-fluoropyridin-3-yl)methyl)piperidin-4-yl)-6-methoxy-2H-indazol-5-yl)-3-(trifluoromethyl)benzamide]
Inhibition rate (%) at 0.5 μM ([1]; CRBN binding, HTRF, compound at 0.5 μM): a1 (10% < a1 ≤ 20%)
Inhibition rate (%) at 2 μM ([1]; CRBN binding, HTRF, compound at 2 μM): a5 (53% < a5 ≤ 60%)

CC1(C)CCC(c2ccc(Cl)cc2)=C(CN2CCN(c3ccc(C(=O)NS(=O)(=O)c4ccc(N[C@H](CCN5CC6CCC(C5)N6Cc5ccc(C6CCC(=O)NC6=O)cc5)CSc5ccccc5)c(S(=O)(=O)C(F)(F)F)c4)cc3)CC2)C1 (stereo partly drawn) [GT-07858, 4-(4-((4′-chloro-4,4-dimethyl-3,4,5,6-tetrahydro-[1,1′-biphenyl]-2-yl)methyl)piperazin-1-yl)-N-((4-(((2R)-4-(8-(4-(2,6-dioxopiperidin-3-yl)benzyl)-3,8-diazabicyclo[3.2.1]octan-3-yl)-1-(phenylthio)butan-2-yl)amino)-3-((trifluoromethyl)sulfonyl)phenyl)sulfonyl)benzamide]
inhibition at 0.5 µM ([1]; CRBN binding, HTRF, compound at 0.5 μM, read-out: Inhibition rate (%) at 0.5 μM): 30 to 40%
inhibition at 2 µM ([1]; CRBN binding, HTRF, compound at 2 μM, read-out: Inhibition rate (%) at 2 μM): 60 to 80%

C=CC(=O)N1CCC(c2ccc(C(N)=O)c(-c3ccc(Oc4ccccc4)cc3)n2)CC1 [Orelabrutinib, reference compound]
IC50 [1, 2]: > 10000 nM

CN(C)C/C=C/C(=O)Nc1cc2c(Nc3ccc(F)c(Cl)c3)ncnc2cc1O[C@H]1CCOC1 [afatinib]
IC50 [1, 2]: > 10000 nM

C#Cc1cccc(Nc2ncnc3cc(OCCOC)c(OCCOC)cc23)c1 [erlotinib, reference compound]
IC50 [1, 2]: > 10000 nM

C=CC(=O)N1CCC[C@@H](n2nc(-c3ccc(Oc4ccccc4)cc3)c3c(N)ncnc32)C1 [ibrutinib, Ibrutinib, reference compound]
IC50 [1, 2]: > 10000 nM

C=CC(=O)Nc1cc(Nc2nccc(-c3cn(C)c4ccccc34)n2)c(OC)cc1N(C)CCN(C)C [osimertinib, reference compound]
IC50 [1]: > 10000 nM
